Test results taken from ChEMBL document CHEMBL5537178, “Discovery of TP0628103: A Highly Potent and Selective MMP-7 Inhibitor with Reduced OATP-Mediated Clearance Designed by Shifting Isoelectric Points” (J Med Chem, 2024).
Starred links: 1 amine or outer side, 2 acyl side, 3 side chain; linkers in the order of their positions; H or OH if unused. Non-standard residues stand in square brackets, D forms with d. Residues, ends and D or L forms follow the SMILES beside them. *: point of attachment. Benzenesulfonyl(4-Cl,3-CF3) = O=S(=O)(c1ccc(Cl)c(C(F)(F)F)c1)*; γGlu = O=C(O)[C@H](CCC(=O)[*:2])N[*:1]; 4Pal = N[C@@H](Cc1ccncc1)C(=O)O; Tle = CC(C)(C)[C@H](N)C(=O)O; β3hP = O=C(O)C[C@@H]1CCCN1

Columns and labels:
[1] = Chemical stability of the compound in pH 4 aqueous solution assessed as degradation by measuring residual rate incubated for 24 hrs at 65 degC by HPLC analysis; type: physicochemical; details: read-out: Activity
[2] = Chemical stability of the compound in pH 7.4 aqueous solution assessed as degradation by measuring residual rate incubated for 24 hrs at 65 degC by HPLC analysis; type: physicochemical; details: read-out: Activity
[3] = Total clearance in CL57BL/6J mouse at 0.25 mg/kg, iv measured upto 24 hrs by LCMS/MS analysis; type: ADME, organism-based; details: in vivo
[4] = Volume of distribution at steady state in CL57BL/6J mouse at 0.25 mg/kg, iv measured upto 24 hrs by LCMS/MS analysis; type: ADME, organism-based; details: in vivo, read-out: Vdss
[5] = Urinary excretion rate in rat at 1 mg/kg, iv; type: ADME, organism-based; details: urine, read-out: Activity
[6] = Stability of the compound in rat liver S9 fraction; type: ADME, subcellular
[7] = Total clearance in cynomolgus monkey at 0.25 mg/kg, iv; type: ADME, organism-based, Macaca fascicularis; details: in vivo
[8] = Volume of distribution at steady state in cynomolgus monkey at 0.25 mg/kg, iv; type: ADME, organism-based, Macaca fascicularis; details: in vivo, read-out: Vdss
[9] = Total clearance in cynomolgus monkey at 0.25 mg/kg, iv pretreated with rifampicin 20 mg/kg, po 1 hr before; type: ADME, organism-based, Macaca fascicularis; details: in vivo
[10] = Volume of distribution at steady state in cynomolgus monkey at 0.25 mg/kg, iv pretreated with rifampicin 20 mg/kg, po 1 hr before; type: ADME, organism-based, Macaca fascicularis; details: in vivo, read-out: Vdss
[11] = Lipophilicity, logD of compound at pH 7.4; type: physicochemical; details: buffer

SMILES | remaining at 24 h [1] | remaining at 24 h [2] | other results
CN(C)CCCC[C@H](NC(=O)CCN)C(=O)N1CCN(C(=O)c2ccc(NC(=O)[C@@H](NC(=O)[C@H](Cc3ccncc3)NC(=O)CNC(=O)CC[C@H](NS(=O)(=O)c3ccc(Cl)c(C(F)(F)F)c3)C(=O)O)C(C)(C)C)cc2)CC1 | 100% | 93.7% | –
CC(C)(C)[C@H](NC(=O)[C@H](Cc1ccncc1)NC(=O)CNC(=O)CC[C@H](NS(=O)(=O)c1ccc(Cl)c(C(F)(F)F)c1)C(=O)O)C(=O)Nc1ccc(C(=O)O)cc1 | – | – | clearance [3]: 200 mL/min/kg; Vd [4]: 2.48 L/kg
CC(C)(C)[C@H](NC(=O)[C@H](Cc1ccncc1)NC(=O)CNC(=O)CC[C@H](NS(=O)(=O)c1ccc(Cl)c(C(F)(F)F)c1)C(=O)O)C(=O)Nc1ccc(C(=O)N2CCC(C(=O)N[C@H](CCCNC(=N)N)C(=O)NCCN)CC2)cc1 | 98.8% | 88.7% | –
CC(C)(C)[C@H](NC(=O)[C@H](Cc1ccncc1)NC(=O)CNC(=O)CC[C@H](NS(=O)(=O)c1ccc(Cl)c(C(F)(F)F)c1)C(=O)O)C(=O)N1CCC[C@H]1CC(N)=O ({Benzenesulfonyl(4-Cl,3-CF3)-γGlu}-G[4Pal][Tle][β3hP]-NH2) | – | – | dose excreted [5]: 5%; Stability [6]: < 10%; clearance [7]: 24.5 mL/min/kg; Vd [8]: 0.283 L/kg; clearance [9]: 9.12 mL/min/kg; Vd [10]: 0.208 L/kg
COc1ccccc1Oc1c(NS(=O)(=O)c2ccc(C(C)(C)C)cc2)nc(-c2ncccn2)nc1OCCO [BOSENTAN] | – | – | logD [11]: 2.4
CC(C)(C)[C@H](NC(=O)[C@H](Cc1ccncc1)NC(=O)CNC(=O)CC[C@H](NS(=O)(=O)c1ccc(Cl)c(C(F)(F)F)c1)C(=O)O)C(=O)Nc1ccc(C(=O)N2CCN(C(=O)[C@@H](N)CCCN)CC2)cc1 | 88.6% | 58.7% | clearance [3]: 41.3 mL/min/kg; Vd [4]: 0.185 L/kg
CC(C)c1nc(N(C)S(C)(=O)=O)nc(-c2ccc(F)cc2)c1/C=C/[C@@H](O)C[C@@H](O)CC(=O)O [ROSUVASTATIN] | – | – | logD [11]: -1.9
CC(C)(C)[C@H](NC(=O)[C@H](Cc1ccncc1)NC(=O)CNC(=O)CC[C@H](NS(=O)(=O)c1ccc(Cl)c(C(F)(F)F)c1)C(=O)O)C(=O)Nc1ccc(C(=O)NCC2(N)CCNCC2)cc1 | 95.6% | 86.4% | –

Second part, led by results:

remaining at 24 h [1] | remaining at 24 h [2] | SMILES | other results
97% | 96.2% | CC(C)(C)[C@H](NC(=O)[C@H](Cc1ccncc1)NC(=O)CNC(=O)CC[C@H](NS(=O)(=O)c1ccc(Cl)c(C(F)(F)F)c1)C(=O)O)C(=O)Nc1ccc(C(=O)N2CCC(C(=O)N[C@H](CCCCN)C(=O)N3C[C@@H](N)C[C@H]3C(N)=O)CC2)cc1 | –
99.6% | 90.5% | CC(C)(C)[C@H](NC(=O)[C@H](Cc1ccncc1)NC(=O)CNC(=O)CC[C@H](NS(=O)(=O)c1ccc(Cl)c(C(F)(F)F)c1)C(=O)O)C(=O)Nc1ccc(C(=O)N2CCC(C(=O)N[C@H](CCCCN)C(=O)NCCN)CC2)cc1 | –
